Source: patent publication US5759768A, “Assays for factors affecting circularization of DNA, assays for factors affecting DNA integration, factors, and uses thereof” (priority 1995, dated 1998)
Entries after “also recorded” stand apart in the source; their conditions may differ.

How the values were obtained:
[1] = tested on: linear viral DNA (circularization); format: biochemical, HIV-1
Method: The chronically HIV-1 infected Molt IIIB human T cell line (HTLV IIIB virus strain) was the source of virus for cell-free infections. This human T cell line constitutively produces a low level of the HTLV-111B strain of HIV-1. Culture supernatant containing a high concentration of virus was prepared by incubating 300×10^6 Molt IIIB cells in 50 ml fresh RPMI 1640 medium containing 20% fetal calf serum and 10 ng of phorbol 12-myristate 13-acetate per ml for 20-24 hours. […] Cytoplasmic extracts (3 ml) were prepared 4-4.5 hours post-infection, by a modification of the procedure of Brown et al., Cell 49: 342-356 (1987).
At specified times after infection, cells were washed twice with buffer K (20 mM Hepes, pH 7.4, 150 mM KCl, 5 mM MgCl2, 1 mM dithiothreitol, […]) and then lysed at a concentration of 33×10^6 cells per ml in the same buffer containing 0.025% digitonin or 0.025% Triton X-100. Cells were extracted for 10 minutes at room temperature, and the lysate was centrifuged at 1000×g for 3 minutes, and is referred to as "cytoplasmic extract". Cytoplasmic extract was the source of viral DNA for analyses in the assays described below. The pellet from the initial low-speed centrifugation contained cell debris and intact nuclei and is called the "nuclear pellet". Cell extracts from uninfected SupT1 cells were prepared in the same manner.
Viral DNA present in cytoplasmic extracts was deproteinated by incubation with proteinase K (1 mg/ml)/10 mM EDTA/0.5% SDS for 1 hour at 55° C. Samples were extracted successively with phenol/chloroform [1:1 (vol/vol)] and chloroform. DNA was ethanol-precipitated, washed with 70% ethanol, resuspended in 10 mM Tris.HCI (pH 7.4), and treated with RNase A (20 μpg/ml)for 1 hour at […]. before analysis by agarose gel electrophoresis and Southern blotting.
DNA samples were layered on 0.8% agarose gels and electrophoresed at 1 V/cm for 15 hour in Tris/acetate/EDTA buffer. After electrophoresis, DNA was blotted by capillary action onto nitrocellulose (0.45 μm, Schleicher & Schuell).
Cell extracts were prepared from cells four to five hours after infection with HIV-1, using the above-described methods to yield fully functional viral preintegration complexes. […] In all cases, a HIV-1 LTR-containing DNA fragment was used as a hybridization probe. Therefore, only LTR-containing DNA fragments are detected. […] Lane 5: Unintegrated viral DNA prepared by Hirt extraction of SupT1 cells infected 24 hours earlier with concentrated HIV-1. […] Viral DNA was purified from extracts incubated with 1 mM ATP for 15 minutes (lanes 1 and 4), with 1 mM ATP for 45 minutes (lanes 3 and 6), or with 1 mM ATPγS for 45 minutes (lanes 2 and 5). Lanes 1-3: uncut viral DNA; lanes 4-6: viral DNA was cut with SalI prior to electrophorosis. Lane 7: linear viral DNA, prepared from untreated extracts was digested with SalI prior to electrophorosis. Lane 8: unintegrated viral DNA prepared by Hirt extraction of infected cells, as described with respect to FIG. 14, digested with SalI prior to electrophoresis. […] Lanes 1-3. Viral DNA prepared from extracts treated with 1 mM ATP for 15 minutes, 30 minutes and 45 minutes, respectively. Lane 4: Viral DNA prepared from extract treated with 1 mM ATPγS for 45 minutes. Lanes 5-7: products of reactions shown in lanes 1-3, respectively, digested with SalI and PstI prior to electrophoresis. Lane 8: SalI, PstI digestion of viral DNA prepared from extract treated with 1 mM ATP for 90 minutes. Lane 9: SalI, PstI digestion of reaction products shown in lane 4. Lane 10: SalI, PstI digestion of unintegrated viral DNA prepared by Hirt extraction of infected cells.

[2] = tested on: viral DNA (circularization versus integration into .phi.X174 target DNA); assay: Circularization versus integration (competition) in cytoplasmic extracts from infected cells; format: biochemical, HIV-1
Method: Circularization of the linear viral DNA present in cytoplasmic extracts was competitive with integration into heterologous DNA targets (FIG. 28). In FIG. 28, cytoplasmic extracts from infected cells were incubated at 37° C. as follows: Lane 1; incubation with 10 μg/ml .phi.X174 DNA for 45 minutes, lane 2, incubation with 1 mM ATP for 45 minutes; lane 3, incubation with […] .phi.X174 DNA and 1 mM ATP for 45 minutes; lane 4, incubation with 10 μg/ml .phi.X174 DNA for 45 minutes, followed by incubation with 1 mM ATP for 45 minutes; lane 5, incubation with 1 mM ATP for 45 minutes, followed by incubation with 10 μg/ml .phi.X174 DNA for 45 minutes; lane 6, incubation with nothing added for 45 minutes, followed by incubation with 10 μg/ml .phi.X174 DNA for 45 minutes. In FIG. 29, lanes 1-6, cytoplasmic extracts from infected cells were incubated at 37° C. for 45 minutes in the presence of 1 mM ATP and .phi.X174 DNA at a concentration of 0 μg/ml (lane 1), 0.3 μg/ml (lane 2), 0.8 μg/ml (lane 3), 1.6 μg/ml (lane 4), 3.2 μg/ml (lane 5), or 6.4 μg/ml (lane 6). Lane 7, extract incubated with 6.4 μg/ml .phi.X174 DNA for 45 minutes in the absence of added ATP. In FIG. 30, cytoplasmic extracts from infected cells were incubated at 37° C. for 60 minutes with nothing added (lane 1), with 6.4 μg/ml .phi.X174 DNA and 1 mM ATPγS (lane 2), or with 1 mM […] (lane 3). […]

Row | SMILES | formation of circular viral DNA species ([1]; 1 mM, 37° C., 45 min, no target DNA) | 1-LTR circle formation ([1]; 5 mM ATP) | formation of 2-LTR circles ([1]; 5 mM ATP) | ATP concentration of peak 1-LTR circle formation ([1]; 37° C., 45 or 90 min) [mM] | optimal ATP concentration for formation of 2-LTR circles ([1]; 37° C., 45 or 90 min) [mM] | 1-LTR [ATP] optimum ([1]; table) [mM] | Autointegration [ATP] optimum ([1]; table) [mM] | circular or integrated product ([2]; ATP (1 mM) and target DNA together, versus either alone, 45 min) | integration of viral DNA into target DNA ([2]; preincubation with 1 mM ATP for 45 min prior to target DNA) | induction of 1-LTR circular form ([1]; 1 mM, 37° C., 45 min) | induction of 2-LTR circles ([1]; 1 mM, 37° C., 45 min) | 1-LTR circles (restriction analysis) ([1]; 1 mM, 45 min) | origin of 2-LTR circles (SalI/PstI digestion) ([1]; 1 mM, 45 min) | simple 2-LTR circles (SalI/PstI digestion) ([1]; 1 mM, 45 min) | type of circular viral DNA formed ([1]; 1 mM, 45 min, restriction enzyme analysis)
1 | Nc1ncnc2c1ncn2[C@@H]1O[C@H](COP(=O)(O)OP(=O)(O)OP(=O)(O)O)[C@@H](O)[C@H]1O [ATP, adenosine triphosphate] | formation of two viral DNA species that migrated more slowly than the linear form of viral DNA | considerable | completely inhibited | 2 | 1 | 2 | 1 | the amount of circular or integrated product produced was reduced | integration of viral DNA into target DNA was prevented; also recorded: unable to integrate during a subsequent incubation with target DNA |  |  |  |  |  | 
2 | Nc1ncnc2c1ncn2[C@@H]1O[C@H](COP(=O)(O)OP(=O)(O)OP(O)(O)=S)[C@@H](O)[C@H]1O [ATPγS] |  |  |  |  |  |  |  |  |  | unable to induce detectable amounts of the 1-LTR circular forms | induced the formation of 2-LTR circles | no detectable 1-LTR circles | entirely the products of autointegration | absence of simple 2-LTR circles among the reaction products | exclusively of the 2-LTR type
